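Values below derive from 48-hour exposures of cells grown in 96-well plates, with endpoints linearly interpolated between the two concentrations bracketing the appropriate inhibition level. GI50: concentration for 50% inhibition of growth. TGI: concentration producing complete growth inhibition.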
Legend:
Experiment in all cases: DTP human tumour cell line panel, 48 h
[1] = tested on: NCI/ADR-RES ovarian
[2] = tested on: HS 578T breast
[3] = tested on: SF-539 CNS
[4] = tested on: MOLT-4 leukemia
[5] = tested on: KM12 colon
[6] = tested on: SK-MEL-2 melanoma
[7] = tested on: SK-MEL-5 melanoma
[8] = tested on: SW-620 colon
[9] = tested on: CCRF-CEM leukemia
[10] = tested on: MALME-3M melanoma
[11] = tested on: RPMI-8226 leukemia
[12] = tested on: SF-295 CNS
[13] = tested on: UACC-62 melanoma
[14] = tested on: MCF7 breast
[15] = tested on: HCT-15 colon
[16] = tested on: U251 CNS
[17] = tested on: SR leukemia
[18] = tested on: NCI-H522 lung
[19] = tested on: UO-31 renal
[20] = tested on: EKVX NSCLC
[21] = tested on: RXF 393 renal
[22] = tested on: UACC-257 melanoma
[23] = tested on: LOX IMVI melanoma
[24] = tested on: K-562 leukemia
[25] = tested on: SF-268 CNS
[26] = tested on: HCC-2998 colon
[27] = tested on: A549 NSCLC
[28] = tested on: PC-3 prostate
[29] = tested on: HL-60(TB) leukemia
[30] = tested on: ACHN renal
[31] = tested on: OVCAR-3 ovarian
[32] = tested on: COLO 205 colon
[33] = tested on: BT-549 breast
[34] = tested on: SNB-19 CNS
[35] = tested on: M14 melanoma
[36] = tested on: HOP-92 NSCLC
[37] = tested on: HCT-116 colon
[38] = tested on: OVCAR-5 ovarian
[39] = tested on: T-47D breast
[40] = tested on: 786-0 renal
[41] = tested on: OVCAR-4 ovarian
[42] = tested on: MDA-MB-435
[43] = tested on: NCI-H23 lung
[44] = tested on: SN12C renal
[45] = tested on: HT29 colon
[46] = tested on: A498 renal
[47] = tested on: MDA-MB-231 breast
[48] = tested on: IGROV1 ovarian
[49] = tested on: HOP-62 NSCLC
[50] = tested on: TK-10 renal
[51] = tested on: CAKI-1 renal
[52] = tested on: SK-OV-3 ovarian
[53] = tested on: SNB-75 CNS
[54] = tested on: OVCAR-8 ovarian
[55] = tested on: DU-145 prostate
[56] = tested on: SK-MEL-28 melanoma
[57] = tested on: NCI-H460 lung
[58] = tested on: NCI-H226 lung

## COc1ccc(C(=O)Nc2ncc(Cc3ccccc3Cl)s2)cc1
[1]
  GI50: 145 nM
  TGI: 3790 nM
[2]
  GI50: 309 nM
  TGI: 23600 nM
[3]
  GI50: 179 nM
  TGI: 842 nM
[4]
  GI50: 266 nM
  TGI: > 100000 nM
[5]
  GI50: 140 nM
  TGI: 23000 nM
[6]
  GI50: 176 nM
  TGI: 3830 nM
[7]
  GI50: 307 nM
  TGI: 6440 nM
[8]
  GI50: 106 nM
  TGI: > 100000 nM
[9]
  GI50: 148 nM
  TGI: > 100000 nM
[10]
  GI50: 1120 nM
  TGI: 23100 nM
[11]
  GI50: 270 nM
  TGI: > 100000 nM
[12]
  GI50: 214 nM
  TGI: 6430 nM
[13]
  GI50: 127 nM
  TGI: 16300 nM
[14]
  GI50: 137 nM
  TGI: > 34500 nM
[15]
  GI50: 59.3 nM
  TGI: 13200 nM
[16]
  GI50: 288 nM
  TGI: 23100 nM
[17]
  GI50: 39.8 nM
  TGI: > 100000 nM
[18]
  GI50: 118 nM
  TGI: 387 nM
[19]
  GI50: 696 nM
  TGI: 38100 nM
[20]
  GI50: 1790 nM
  TGI: 38600 nM
[21]
  GI50: 126 nM
  TGI: 1410 nM
[22]
  GI50: 5870 nM
  TGI: > 65500 nM
[23]
  GI50: 259 nM
  TGI: > 35000 nM
[24]
  GI50: 60 nM
  TGI: > 100000 nM
[25]
  GI50: 1580 nM
  TGI: 58300 nM
[26]
  GI50: 240 nM
  TGI: 3660 nM
[27]
  GI50: 435 nM
  TGI: > 47400 nM
[28]
  GI50: 274 nM
  TGI: > 68400 nM
[29]
  GI50: 87.3 nM
  TGI: 1950 nM
[30]
  GI50: 502 nM
  TGI: 18300 nM
[31]
  GI50: 191 nM
  TGI: 5220 nM
[32]
  GI50: 264 nM
  TGI: 1030 nM
[33]
  GI50: 427 nM
  TGI: 11000 nM
[34]
  GI50: 404 nM
  TGI: 19200 nM
[35]
  GI50: 162 nM
  TGI: > 36600 nM
[36]
  GI50: 11800 nM
  TGI: > 80200 nM
[37]
  GI50: 114 nM
  TGI: 15700 nM
[38]
  GI50: 406 nM
  TGI: 22600 nM
[39]
  GI50: 2090 nM
  TGI: > 56700 nM
[40]
  GI50: 400 nM
  TGI: 22600 nM
[41]
  GI50: 2070 nM
  TGI: 30000 nM
[42]
  GI50: 31.6 nM
  TGI: 122 nM
[43]
  GI50: 625 nM
  TGI: 30500 nM
[44]
  GI50: 309 nM
  TGI: 20400 nM
[45]
  GI50: 128 nM
  TGI: 2230 nM
[46]
  GI50: 6540 nM
  TGI: 33700 nM
[47]
  GI50: 437 nM
  TGI: 20000 nM
[48]
  GI50: 486 nM
  TGI: 26800 nM
[49]
  GI50: 667 nM
  TGI: 18700 nM
[50]
  GI50: 11900 nM
  TGI: 41100 nM
[51]
  GI50: 138 nM
  TGI: 16600 nM
[52]
  GI50: 372 nM
  TGI: 16600 nM
[53]
  GI50: 201 nM
  TGI: 6020 nM
[54]
  GI50: 462 nM
[55]
  GI50: 415 nM
  TGI: 14200 nM
[56]
  GI50: 1550 nM
  TGI: > 66400 nM
[57]
  GI50: 147 nM
  TGI: 5200 nM
[58]
  GI50: 283 nM
  TGI: 2530 nM
